Data reported in patent US20060148858A1, “1, 2-Azole derivatives with hypoglycemic and hypolipidemic activity” (priority 2002, published 2006).

How the values were obtained:
PPARγ-RXRα heterodimer = molecular target: T1, PPARγ-RXRα heterodimer (Homo sapiens, UniProt P37231); experiment: PPARγ-RXRα heterodimer ligand activity, luciferase reporter in PPARγ:RXRα:4ERPP/CHO-K1 cells (Test Example 3); type: cell-based; conditions: 18-48 hours, concentration for 50% of the maximum fold induction
T1 construct: expressed in transfected cells; host or cells: CHO-K1
T1 sequence (P37231 1-477 isoform P37231-2): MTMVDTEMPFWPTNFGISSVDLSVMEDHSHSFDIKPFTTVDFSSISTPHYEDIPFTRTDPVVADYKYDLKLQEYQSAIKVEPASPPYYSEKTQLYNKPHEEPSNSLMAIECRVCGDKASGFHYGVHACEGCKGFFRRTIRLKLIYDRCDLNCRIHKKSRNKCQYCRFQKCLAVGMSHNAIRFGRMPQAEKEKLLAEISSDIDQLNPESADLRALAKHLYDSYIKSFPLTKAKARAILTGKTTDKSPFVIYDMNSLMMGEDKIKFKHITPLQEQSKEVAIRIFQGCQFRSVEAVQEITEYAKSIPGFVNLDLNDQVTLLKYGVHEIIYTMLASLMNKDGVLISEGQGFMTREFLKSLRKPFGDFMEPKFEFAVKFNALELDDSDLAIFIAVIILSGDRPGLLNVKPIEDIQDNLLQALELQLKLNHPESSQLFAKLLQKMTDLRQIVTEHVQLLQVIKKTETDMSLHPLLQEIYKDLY
T1 sequence (P19793 1-462 partner): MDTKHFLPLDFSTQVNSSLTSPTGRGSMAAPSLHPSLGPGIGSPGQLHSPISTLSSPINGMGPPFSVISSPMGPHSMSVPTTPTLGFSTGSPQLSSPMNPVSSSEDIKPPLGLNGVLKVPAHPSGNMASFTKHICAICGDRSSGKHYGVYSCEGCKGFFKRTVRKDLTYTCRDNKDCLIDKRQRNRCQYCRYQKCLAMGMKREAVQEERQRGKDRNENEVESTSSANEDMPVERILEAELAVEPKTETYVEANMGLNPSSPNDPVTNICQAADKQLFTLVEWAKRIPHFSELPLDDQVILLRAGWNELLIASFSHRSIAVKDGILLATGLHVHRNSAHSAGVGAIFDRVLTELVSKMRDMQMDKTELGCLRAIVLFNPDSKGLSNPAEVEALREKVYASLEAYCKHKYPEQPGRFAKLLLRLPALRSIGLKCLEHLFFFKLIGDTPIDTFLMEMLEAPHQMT
Protocol: A PPARγ: RXRα: 4ERPP/CHO-K1 cells obtained in Reference Example 8a described later were cultured in HAM F12 medium (produced by Life Technologies, Inc., USA) containing 10% Fetal bovine serum (produced by Life Technologies, Inc., USA) and then inoculated to a 96-well white plate (produced by Corning Costar Corporation, USA) at the density of 2×10^4 cells/well, and cultured in a CO2 gas incubator at 37° C. overnight.
After removing the medium from 96 well white plate, 80 μl of HAM F12 medium containing 0.1% fatty acid-free bovine serum albumin (BSA) and 20 μl of test compound were added, which was cultured in a CO2 gas incubator at 37° C. for 18-48 hours. After removing the medium, 40 μl of PIKKAGENE 7.5 (produced by Wako Pure Chemical Industries, Ltd.) diluted twice with HBSS (HANKS' BALANCED SALT SOLUTION)(produced by BIO WHITTAKER Inc., USA), was added. After stirring, the luciferase activity was determined using 1420 ARVO Multilabel Counter (produced by PerkinElmer Inc., USA).
A fold induction was calculated based on the luciferase activity of each test compound by taking the luciferase activity in the non-treatment group as 1. The values of the test compound concentration and the fold induction were analyzed using PRISM (produced by GraphPad Software Inc. USA) to calculate the EC50 values, the effective concentration of a test compound for 50% of the maximum fold induction.
After a CHO-K1 cell cultured in a 150 cm^2 cell culture flask (750 ml)(produced by Corning Costar Corporation, USA) containing HAM F12 medium (produced by Life Technologies, Inc., USA) supplemented with 10% Fetal Bovine Serum (produced by Life Technologies, Inc., USA) was scraped by treating with 0.5 g/L trypsin-0.2 g/L EDTA (ethylenediaminetetraacetic acid) (produced by Life Technologies, Inc., USA), the cell was washed with PBS (phosphate-buffered saline) (produced by Life Technologies, Inc., USA), centrifuged (1000 rpm, 5 minutes), and then suspended in PBS. Subsequently, a DNA was introduced into the cell under the condition shown below using GENE PULSER (produced by Bio-Rad Laboratories, USA).
Namely, to a cuvette having a 0.4 cm gap, added were 8×10^6 cells and 10 μg of plasmid pVgRXR2-hPPARγ obtained in Reference Example 7a and 10 μg of reporter plasmid pGL3-4ERPP-TK neo obtained in Reference Example 5a, which was subjected to electroporation at the voltage of 0.25 kV under the capacitance of 960 μF. Subsequently, the cell was transferred into a HAM F12 medium containing 10% Fetal Bovine Serum and cultured for 24 hours and then the cell was scraped again and centrifuged, and then suspended in HAM F12 medium containing 10% Fetal Bovine Serum supplemented with 500 μg/ml of GENETICIN (produced by Life Technologies, Inc., USA) and 250 μg/ml of ZEOCIN (produced by Invitrogen, USA). The obtained suspension was diluted to the density of 10^4 cells/ml and inoculated to a 96-well plate (produced by Corning Costar Corporation, USA), which was cultured in a CO2 gas incubator at 37° C., whereby obtaining a GENETICIN- and ZEOCIN-resistant transformant.
Subsequently, after the transformant cell line thus obtained was cultured in a 24-well plate (produced by Corning Costar Corporation, USA), selected was a cell line in which the luciferase was expressed and induced, i.e., PPARγ:RXRα:4ERPP/CHO-K1 cell by addition of 10 μM of pioglitazone hydrochloride.

PPARδ-RXRα heterodimer = molecular target: T2, PPARδ-RXRα heterodimer (Homo sapiens, UniProt Q03181); experiment: PPARδ-RXRα heterodimer ligand activity, luciferase reporter in COS-1 transformant (Test Example 4); type: cell-based; conditions: COS-1 transformant (hPPARδ, hRXRα, reporter), 36-48 hours, concentration for 50% of the maximum fold induction
T2 construct: expressed in transfected cells; host or cells: COS-1
T2 sequence (Q03181 1-441): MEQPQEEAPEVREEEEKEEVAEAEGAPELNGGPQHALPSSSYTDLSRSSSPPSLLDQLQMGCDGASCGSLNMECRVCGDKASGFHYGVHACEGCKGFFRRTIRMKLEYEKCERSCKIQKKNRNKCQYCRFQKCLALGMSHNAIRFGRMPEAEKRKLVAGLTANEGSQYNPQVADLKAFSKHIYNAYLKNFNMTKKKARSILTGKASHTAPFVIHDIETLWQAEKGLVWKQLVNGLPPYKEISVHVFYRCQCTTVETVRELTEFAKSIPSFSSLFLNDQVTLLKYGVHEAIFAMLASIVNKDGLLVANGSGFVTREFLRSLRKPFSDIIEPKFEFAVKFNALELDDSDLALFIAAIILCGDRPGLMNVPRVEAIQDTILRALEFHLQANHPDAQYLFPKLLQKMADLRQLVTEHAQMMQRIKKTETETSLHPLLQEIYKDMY
T2 sequence (P19793 1-462 partner): T1 sequence (P19793 1-462 partner)
How it was run: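 COS-1 cells transiently co-transfected with human PPARδ, human RXRα, PPRE-luciferase reporter and pRL-tk, then exposed to compound 36-48 h at 37 °C in DMEM with 0.1% fatty acid-free BSA. Luciferase read as fold induction over untreated; EC50 at 50% of maximal fold induction.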

Row | EC50 (PPARγ-RXRα heterodimer) | melting point | EC50 (PPARδ-RXRα heterodimer) | SMILES
1 | 21 nM | 119 to 121 °C |  | CCCc1nn(-c2ccc(C(F)(F)F)cn2)cc1CCCCn1cc(CCC(=O)O)c(-c2ccc(F)cc2)n1 [Example 77, 3-[3-(4-fluorophenyl)-1-(4-{3-propyl-1-[5-(trifluoromethyl)-2-pyridinyl]-1H-pyrazol-4-yl}butyl)-1H-pyrazol-4-yl]propanoic acid]
2 | 42 nM | 134 to 135 °C |  | COc1cccc(CC(=O)O)c1OCCCc1cn(-c2ccc(C(F)(F)F)cn2)nc1-c1ccccc1 [Example 196]
3 | 30 nM | 106 to 107 °C |  | CCCCc1nn(-c2ccc(C(F)(F)F)cn2)cc1CCCOc1ccccc1CC(=O)O [Example 198, [2-(3-{3-butyl-1-[5-(trifluoromethyl)-2-pyridyl]-1H-pyrazol-4-yl}propoxy)phenyl]acetic acid]
4 | 16 nM | 149 to 150 °C |  | O=C(O)Cc1cccc(F)c1OCCCc1cn(-c2ccc(C(F)(F)F)cn2)nc1C1CCCCC1 [Example 210, [2-(3-{3-cyclohexyl-1-[5-(trifluoromethyl)-2-pyridyl]-1H-pyrazol-4-yl}propoxy)-3-fluorophenyl]acetic acid]
5 | 99 nM | 161 to 162 °C |  | COc1cccc(CC(=O)O)c1OCCCc1cn(-c2ccc([N+](=O)[O-])cn2)nc1C(C)C [Example 270, (3-methoxy-2-{3-[3-isopropyl-1-(5-nitro-2-pyridyl)-1H-pyrazol-4-yl]propoxy}phenyl)acetic acid]
6 | 30 nM |  |  | COc1cccc(CC(=O)O)c1OCCCc1cn(-c2ccc(C#N)cn2)nc1C(C)C [Example 271, (2-{3-[1-(5-cyano-2-pyridyl)-3-isopropyl-1H-pyrazol-4-yl]propoxy}-3-methoxyphenyl)acetic acid]
7 | 90 nM | 125 to 126 °C |  | COc1cccc(CC(=O)O)c1OCCCc1cn(-c2ccc(F)cn2)nc1C(C)C [Example 273, (2-{3-[1-(5-fluoro-2-pyridyl)-3-isopropyl-1H-pyrazol-4-yl]propoxy}-3-methoxyphenyl)acetic acid]
8 | 36 nM | 124 to 125 °C |  | COc1ccc(-n2cc(CCCOc3c(CC(=O)O)cccc3OC)c(C(C)C)n2)nn1 [Example 277, (3-methoxy-2-{3-[1-(6-methoxypyridazin-3-yl)-3-isopropyl-1H-pyrazol-4-yl]propoxy}phenyl)acetic acid]
9 |  | 134 to 135 °C | 6 nM | COc1cc(CC(=O)O)ccc1OCCCc1cn(-c2ccc(C(F)(F)F)cn2)nc1C(C)C [Example 278, [3-methoxy-4-(3-{1-[5-(trifluoromethyl)-2-pyridyl]-3-isopropyl-1H-pyrazol-4-yl}propoxy)phenyl]acetic acid]
10 |  | 118 to 119 °C | 5.1 nM | COc1cc(CCC(=O)O)ccc1OCCCc1cn(-c2ccc(C(F)(F)F)cn2)nc1C(C)C [Example 279, 3-[3-methoxy-4-(3-{1-[5-(trifluoromethyl)-2-pyridyl]-3-isopropyl-1H-pyrazol-4-yl}propoxy)phenyl]propanoic acid]
11 | 17 nM | 156 to 157 °C |  | CCOc1cccc(CC(=O)O)c1OCCCc1cn(-c2ccc(C(F)(F)F)cn2)nc1C1CCCCC1 [Example 306, [2-(3-{3-cyclohexyl-1-[5-(trifluoromethyl)-2-pyridinyl]-1H-pyrazol-4-yl}propoxy)-3-ethoxyphenyl]acetic acid]
12 | 23 nM | 140 to 141 °C |  | COc1cccc(CC(=O)O)c1OCCCc1cn(-c2ccc(C(F)(F)F)cn2)nc1C1CCCCC1 [Example 307, [2-(3-{3-cyclohexyl-1-[5-(trifluoromethyl)-2-pyridinyl]-1H-pyrazol-4-yl}propoxy)-3-methoxyphenyl]acetic acid]
13 | 74 nM | 109 to 110 °C |  | CCCCc1nn(-c2ccc(C(F)(F)F)cn2)cc1CCCOc1nn(CC)cc1CC(=O)O [Example 334, [3-(3-{3-butyl-1-[5-(trifluoromethyl)-2-pyridinyl]-1H-pyrazol-4-yl}propoxy)-1-ethyl-1H-pyrazol-4-yl]acetic acid]
